The values that follow come from publication PMC8213385, “Development of a Fluorescent Assay to Search New Drugs Using Stable tdTomato-Leishmania, and the Selection of Galangin as a Candidate With Anti-Leishmanial Activity” (Frontiers in Cellular and Infection Microbiology, 2021).

A short description of data set [1]: Cytotoxicity in macrophage cell line by the MTT method (colorimetric). The format is cell-based. Conditions: mouse, Raw 264.7 macrophage cell line; Raw 264.7, MTT, 48 h; read-out: Colorimetric CC50 μM (SE). Here is the method: The cytotoxicity against a cell line of macrophages (Raw 264.7) of GAL, MO, FI, RU, EGCG, PE, MI and MA was determined by the MTT method. Cells (3.3 x 10^5/ml) cells were treated with different concentrations of each compound during 48 h at 37°C, 5% CO2. The controls were incubated with RPMI-1640 medium. Briefly, 50 µl of MTT (2 mg/mL) was added to each well and, after 4 h of incubation at 37°C, 5% CO2, the reaction was stopped dissolving the formazan crystals with 100 µl/well of dimethyl sulfoxide. The relative amount of formazan produced by viable macrophages was determined using a spectrophotometer at 595 nm. The percentage of viable cells was calculated according to the formula (OD treated culture−OD blank)/(OD control−OD blank) ×100 as was described previously ([Adinehbeigi et al., 2017]). The cytotoxicity concentration 50% (CC50) was calculated for each compound.
On the technique in general: Formazan colour is commonly taken as a measure of viable cells.

The test system of data set [2] is Raw 264.7 macrophages infected with L. amaz/tc3. Put plainly: Cytokine production (IL-12p70, IL-10) by macrophages, ELISA of culture supernatant. The note with it: 20 µM, 48 h. It counts as cell-based. As to the method:
Then, the culture supernatant was recovered and maintained at -80°C until use. The culture supernatant concentrations of IL-12p70 and IL-10 (BD Biosciences, San Diego, USA) were determined by ELISA following the specifications of the supplier. Each condition was performed in quadruplicate.

Data set [3] deals with promastigotes of L. (L.) donovani. Also on record: method as in Kaur et al., 2010. Conditions: GAL isolated from Alpinia galanga rhizomes ref Kaur et al., 2010; read-out: IC50 against promastigotes of L. (L.) donovani; cited from earlier work.

pIC50: −log10 of the molar value.

Broadly, the CC50 is the concentration that lowers cell viability or growth by half. As a reminder, the pIC50 is the IC50 on a negative log10 scale, so that one unit is a factor of ten. For `O=c1c(O)c(-c2ccccc2)oc2cc(O)cc(O)c12` [GAL, Galangin], the CC50 at 48 h in data set [1] came to 22.8 µM. For the same molecule, the “IL-10 concentration in culture supernatant” value in data set [2] (between treated groups) was “did not show significant differences”. In addition, the “IL-12 p70 in culture supernatant, mean (range)” value in data set [2] (infected macrophages, infected non-stimulated controls 72.11 pg/ml, p < 0.01) is 232.2 pg/mL. Further, in data set [3], the pIC50 was 4.00.
